Measurements as given in paper PMC4632323, “Development of a neuroprotective peptide that preserves survival pathways by preventing Kidins220/ARMS calpain processing induced by excitotoxicity” (Cell Death & Disease, 2015).
Where a SMILES comes first, the peptide text is derived from it. Where no end group is shown, it is not given here. The star is where a group is joined. Cbz = O=C(OCc1ccccc1)*

Assays:
cortical neurons = experiment: Calcein-AM/propidium iodide staining of viable and dead neurons after excitotoxicity; format: cell-based, rat; settings: peptide 25 μM pre-incubated 1 h, NMDA 4 h; mean ± S.E.M., n=7
Method: Figure 5 Neuroprotective effect exerted by Tat-K transduction on excitotoxic neuronal death. (a) Effect of Tat-K on cell death induced by NMDAR overactivation. Primary cultures of cortical neurons (DIV 14) were pre-incubated for 1 h with Tat-S or Tat-K (25 μM) and treated with NMDA for 4 h or left untreated. Next, viable and dead cells were visualized by simultaneous fluorescence staining with calcein-AM (1 μM; green) and propidium iodide (PI; 0.5 mM; red), respectively, for 15 min at 37 °C in the dark. Representative images for each condition are shown. Scale bar, 25 μm. (b) Quantitation of Tat-K effect on the relative percentage of viable/dead neurons found in excitotoxic conditions. A minimum of five random fields containing at least 500 neurons each were counted per experimental condition. […] Statistical significance was determined by paired Student's t-test (**P<0.01). (c) Quantitation of the effect of Tat-K on neuronal viability after induction of excitotoxicity. […] Neuronal viability was established by MTT reduction assay after subtracting the contribution of the glial cells present in the mixed cultures to absorbance as indicated in the Methods section. […] Statistical significance was determined by paired Student's t-test (*P<0.05, **P<0.01) […]

Kidins220 [1] = experiment: Kidins220 calpain processing induced by NMDAR overactivation in cortical neurons, immunoblot; format: cell-based, rat; settings: inhibitor added 1 h before NMDA 100 μM + glycine 10 μM, 4 h; CiIII 20 μM, lactacystin 15 μM; Kid-Nt immunoblot
Method: Figure 1 Approximate mapping of Kidins220 processing sites recognized by calpain after induction of excitotoxicity. (a) Immunoblot analysis of primary neuronal cultures (DIV 14) treated with high concentrations of NMDA (100 μM) and glycine (10 μM), herein indicated as NMDA, for 0–6 h. Kidins220 antibodies recognizing a C-terminal peptide (amino acids 1746–1762; Kid-Ct) or the N-terminal region (amino acids 1–402; Kid-Nt), or that specific for the protein neuronal-specific enolase (NSE) were used. Bands corresponding to endogenous full-length (FL) Kidins220 or its different processing N-terminal fragments (Nt-0/Nt-9) are indicated. […]
(a) Cell-membrane peptide Tat-K contains from the N- to the C-terminus amino acids 47–57 of the HIV-1 Tat protein (italic) followed by two proline linker residues and rat Kidins220 amino acids 1668–1681 (bold), which include the major calpain cleavage site (arrow). […] Results were analyzed by immunoblot with Kidins220 (Kid-Ct), spectrin and NSE antibodies. […] Primary cultures of neurons (DIV 14) were incubated with 5, 10 or 25 μM of FITC-labeled control peptide (FITC-Tat-S) for 2, 4 or 6 h and pictures were taken in a conventional fluorescence microscope. […] Cortical neurons were pre-incubated for 1 h with 10 or 25 μM of Tat-K (K) or Tat-S (S) before NMDA addition for 4 h and analyzed by immunoblot with Kidins220 (Kid-Ct), spectrin and NSE antibodies. […]

Kidins220 [2] = experiment: In vitro digestion of neuronal protein extracts with purified calpain I, immunoblot (Kid-Ct); format: biochemical, rat; settings: calpain I 0-80 U/ml, 15 or 30 min, inhibitor 20 μM
Method: (c) Protein extracts from cortical neurons subjected to in vitro digestion with purified calpain I (0, 20, 50 or 80 U/ml) for 15 or 30 min in the absence or presence of calpain inhibitor CiIII (20 μM).
Protein extracts from cortical neurons were subjected to in vitro digestion with purified calpain I (20 U/ml) for 15 min in the presence of peptides Tat-K (K) or Tat-S (S) (0.5 μM). Results were analyzed by immunoblot with Kidins220 (Kid-Ct), spectrin and NSE antibodies.

Row | Molecule | Viable neurons (calcein-AM) relative to total number of neurons (cortical neurons) [%] | Effect on NMDA-induced Kidins220 processing (Nt-1/Nt-9 production) (Kidins220 [1]) | Effect on calpain I cleavage of Kidins220 (decrease of FL-Kidins220 and accumulation of Ct-0) (Kidins220 [2])
1 | YGRKKRRQRRRPPNTTTLSNLPTNVRN [Tat-S] | 23±7 | – | –
2 | YGRKKRRQRRRPPLNRTPSTVTLNNNT [Tat-K] | 40±7 | – | –
3 | CC(C)[C@H](NC(=O)OCc1ccccc1)C(=O)N[C@H](C=O)Cc1ccccc1 [CiIII, carbobenzoxy–valinyl–phenylalaninal] (Cbz-Val-Phe-aldehyde) | – | strongly prevented NMDA-induced processing | inhibited
